Reference: patent US8501713B2, “Drug combinations for the treatment of duchenne muscular dystrophy” (Summit Corporation PLC, priority 2007, dated 2013)

Tested on: Utrophin A promoter linked to a luciferase reporter gene
Assay: Luciferase reporter assay (murine H2K cells)
Format: cell-based
Conditions: for activity at 10 µM: Mus musculus, H2K mdx, read-out: Activity
In short: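 Compound at 10 μM final was applied for 48 hrs to plated H2K mdx myoblasts (33° C, 10% CO2, interferon-containing medium) bearing a luciferase gene under the utrophin A promoter. Luminescence from lysed cells served as read-out.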

[1] = luciferase level relative to control, H2K/mdx/Utro A reporter cells, compound 10 μM final concentration
[2] = luciferase reporter assay in murine H2K cells, classified relative to control

Structure (SMILES)	activity at 10 µM [1] [%]	also measured
CCN(CC)c1ccc(-c2nc3cc(NC(=O)c4ccc(Cl)c(Cl)c4)ccc3o2)cc1 [Example 68, 3,4-dichloro-N-(2-(4-(diethylamino)phenyl)benzo[d]oxazol-5-yl)benzamide]	< 200	–
CCN(CC)c1ccc(-c2nc3cc(NC(=O)c4ccccc4)ccc3o2)cc1 [Example 62, N-(2-(4-(diethylamino)phenyl)benzo[d]oxazol-5-yl)benzamide]	< 200	–
Nc1ccc(Oc2ccc(-c3nc4ccccc4[nH]3)cc2)cc1 [Example 557]	–	Activity [2]: ++++ (Above 401% relative to control)
CC(C)C(=O)Nc1ccc2ccn(Cc3ccccc3)c2c1 [Example 387, N-(1-benzyl-1H-indol-6-yl)isobutyramide]	< 200	–
CCCS(=O)(=O)Nc1ccc2oc(-c3ccc(C)cc3)nc2c1 [Example 253, N-(2-p-tolylbenzo[d]oxazol-5-yl)propane-1-sulfonamide]	< 200	–
Cc1ccc(-c2nc3cc(NC(=O)c4cccs4)ccc3o2)cc1 [Example 120, N-(2-p-tolylbenzo[d]oxazol-5-yl)thiophene-2-carboxamide]	201 to 300	–
COc1ccc(-c2ccc3oc(-c4ccc(Cl)cc4)nc3c2)cn1 [Example 305, 2-(4-chlorophenyl)-5-(6-methoxypyridin-3-yl)benzo[d]oxazole]	201 to 300	–
CC(C)S(=O)(=O)Nc1ccc2oc(-c3ccc(Cl)cc3)nc2c1 [Example 261, N-(2-(4-chlorophenyl)benzo[d]oxazol-5-yl)propane-2-sulfonamide]	< 200	–
Cc1cc(C)cc(-c2nc3cc(N)ccc3o2)c1 [Example 482]	–	Activity [2]: + (Up to 200% relative to control)
Nc1ccc(-c2nc3cc(Cl)c(Cl)cc3o2)cc1 [Example 440, 4-(5,6-dichlorobenzo[d]oxazol-2-yl)aniline]	> 401	–
COc1ccc2cc(-c3nc4cc(N)ccc4o3)ccc2c1 [Example 404, 2-(6-methoxynaphthalen-2-yl)benzo[d]oxazol-5-amine]	201 to 300	–
Cc1cc2nc(-c3ccc(N)cc3O)[nH]c2cc1C [Example 104, 5-amino-2-(5,6-dimethyl-1H-benzo[d]imidazol-2-yl)phenol]	201 to 300	–
CCc1ccc2oc(-c3cccc(N)c3)nc2c1 [Example 502]	–	Activity [2]: ++ (Between 201% and 300% relative to control)
O=[N+]([O-])c1ccc2oc(-c3ccc(OC(F)(F)F)cc3)nc2c1 [Example 348, 5-nitro-2-(4-(trifluoromethoxy)phenyl)benzo[d]oxazole]	201 to 300	–
CCC(C)C(=O)Nc1ccc(-c2nc3ccccc3[nH]2)cc1 (stereo not shown) [Example 631]	–	Activity [2]: ++++ (Above 401% relative to control)
CCCC(=O)Nc1ccc2[nH]c(-c3ccc(Cl)cc3)nc2c1 [Example 178, N-(2-(4-chlorophenyl)-1H-benzo[d]imidazol-5-yl)butyramide]	< 200	–
Cl.Cl.Nc1ccc2[nH]c(-c3ccco3)nc2c1 [Example 510]	–	Activity [2]: + (Up to 200% relative to control)
Cc1nc2ccc(NC(=O)Nc3ccccc3)cc2o1 [Example 466]	–	Activity [2]: + (Up to 200% relative to control)
c1ccc(OCc2nc3ccccc3[nH]2)cc1 [Example 471]	–	Activity [2]: ++ (Between 201% and 300% relative to control)
O=C(Nc1ccc(-c2nc3ccccc3[nH]2)cc1)C1CCCO1 (stereo not shown) [Example 587]	–	Activity [2]: +++ (Between 301% and 400% relative to control)

Structure (SMILES)	activity at 10 µM [1] [%]	also measured
Nc1ccc2oc(-c3ccc(-c4ccccc4)cc3)nc2c1 [Example 401, 2-(biphenyl-4-yl)benzo[d]oxazol-5-amine]	301 to 400	–
CC(C)S(=O)(=O)c1ccc2oc(-c3ccc(Cl)cc3)nc2c1 [Example 281, 2-(4-chlorophenyl)-5-(isopropylsulfonyl)benzo[d]oxazole]	> 401	–
CC(C)C(=O)Nc1ccc2oc(-c3cccnc3)nc2c1 [Example 56, N-(2-(pyridin-3-yl)benzo[d]oxazol-5-yl)isobutyramide]	201 to 300	–
c1ccc(-c2ccc3oc(-c4ccccc4)nc3c2)cc1 [Example 85, 2,5-diphenylbenzo[d]oxazole]	301 to 400	–
Nc1ccc2oc(-c3ccc(C4CCCCC4)cc3)nc2c1 [Example 421, 2-(4-cyclohexylphenyl)benzo[d]oxazol-5-amine]	> 401	–
Cc1cc2nc(-c3ccc(Cl)cc3Cl)oc2cc1C [Example 224, 2-(2,4-dichlorophenyl)-5,6-dimethylbenzo[d]oxazole]	> 401	–
CC(C)C(=O)Nc1ccc2oc(-c3ccc(Cl)cc3)cc2c1 [Example 414, 2-(4′-chlorophenyl)-5-isobutyramido-benzofuran]	< 200	–
CN(C)c1ccc(-c2nc3cc(NC(=O)c4ccncc4)ccc3o2)cc1 [Example 1, N-(2-(4-(dimethylamino)phenyl)benzo[d]oxazol-5-yl)isonicotinamide]	< 200	–
CCN(CC)c1ccc(-c2nc3cc(NC(=O)c4cccs4)ccc3o2)cc1 [Example 79, N-(2-(4-(diethylamino)phenyl)benzo[d]oxazol-5-yl)thiophene-2-carboxamide]	< 200	–
CCN(CC)c1ccc(-c2nc3cc(C(=O)O)ccc3o2)cc1 [Example 152, 2-(4-(diethylamino)phenyl)benzo[d]oxazole-5-carboxylic acid]	< 200	–
COc1ccc(CSc2nc3ccccc3n2C)cc1F [Example 645]	–	Activity [2]: +++ (Between 301% and 400% relative to control)
Nc1ccc(-c2nc3ccccc3[nH]2)cc1 [Example 475]	–	Activity [2]: + (Up to 200% relative to control)
c1csc(-c2nc3ccccc3[nH]2)c1 [Example 463]	–	Activity [2]: + (Up to 200% relative to control)
Cc1ccc(C)c(OCc2nc3ccccc3[nH]2)c1 [Example 548]	–	Activity [2]: + (Up to 200% relative to control)
Cc1ccc(C(=O)Nc2nc3ccccc3s2)c(Cl)c1 [Example 567]	–	Activity [2]: + (Up to 200% relative to control)
CCS(=O)(=O)c1ccc2oc(-c3ccc4cc(Br)ccc4c3)nc2c1 [Example 424, 2-(6-bromonaphthalen-2-yl)-5-(ethylsulfonyl)benzo[d]oxazole]	< 200	–
O=C(O)c1ccc2oc(-c3ccccc3)nc2c1 [Example 107, 2-phenylbenzo[d]oxazole-5-carboxylic acid]	301 to 400	–
CC(C)C(=O)Nc1ccc2sc(-c3ccccc3Cl)nc2c1 [Example 295, N-(2-(2-chlorophenyl)benzo[d]thiazol-5-yl)isobutyramide]	> 401	–
CC(C)(C)c1ccc2oc(-c3ccc(N)cc3)nc2c1 [Example 593]	–	Activity [2]: +++ (Between 301% and 400% relative to control)
CCN(CC)c1ccc(-c2nc3cc(NC(=O)c4ccc(C(F)(F)F)cc4)ccc3o2)cc1 [Example 69, N-(2-(4-(diethylamino)phenyl)benzo[d]oxazol-5-yl)-4-(trifluoromethyl)benzamide]	< 200	–

Structure (SMILES)	activity at 10 µM [1] [%]	also measured
Oc1cccc(-c2nc3ccccc3s2)c1 [Example 594]	–	Activity [2]: ++++ (Above 401% relative to control)
CC(C)C(=O)Nc1ccc2oc(-c3cc(F)ccc3Cl)nc2c1 [Example 344, N-(2-(2-chloro-5-fluorophenyl)benzo[d]oxazol-5-yl)isobutyramide]	< 200	–
O=S(=O)(O)c1ccc2oc(-c3ccc(Cl)cc3)nc2c1 [Example 312, 2-(4-chlorophenyl)benzo[d]oxazole-5-sulfonic acid]	< 200	–
CCN(CC)c1ccc(-c2nc3cc(N)ccc3o2)cc1 [Example 17, 2-(4-(diethylamino)phenyl)benzo[d]oxazol-5-amine]	–	Activity [1]: + (Up to 200% relative to control)
Nc1ccc2oc(-c3cnc4ccccc4c3)nc2c1 [Example 403, 2-(quinolin-3-yl)benzo[d]oxazol-5-amine]	301 to 400	–
Nc1ccc(-c2nc3cc(Cl)c(Cl)cc3o2)c(O)c1 [Example 428, 5-amino-2-(5,6-dichlorobenzo[d]oxazol-2-yl)phenol]	301 to 400	–
Cc1ccc(-c2nc3c(N)cccc3o2)cc1 [Example 234, 2-p-tolylbenzo[d]oxazol-4-amine]	301 to 400	–
Cn1c(-c2ccc(Cl)cc2)nc2ccccc21 [Example 541]	–	Activity [2]: ++ (Between 201% and 300% relative to control)
O=C(Nc1ccc2oc(-c3ccc(C(F)(F)F)cc3)nc2c1)c1ccco1 [Example 128, N-(2-(4-(trifluoromethyl)phenyl)benzo[d]oxazol-5-yl)furan-2-carboxamide]	< 200	–
O=[N+]([O-])c1ccc2oc(-c3ccco3)nc2c1 [Example 366, 2-(furan-2-yl)-5-nitrobenzo[d]oxazole]	< 200	–
Cc1ccc(-c2nc3c(NC(=O)C(C)C)cccc3o2)cc1 [Example 236, N-(2-p-tolylbenzo[d]oxazol-4-yl)isobutyramide]	< 200	–
CC(C)(C)c1ccc2oc(-c3ccc(Cl)cc3)nc2c1 [Example 321, 5-tert-butyl-2-(4-chlorophenyl)benzo[d]oxazole]	> 401	–
O=[N+]([O-])c1ccc2oc(Cc3ccccc3)nc2c1 [Example 214, 2-benzyl-5-nitrobenzo[d]oxazole]	< 200	–
O=[N+]([O-])c1ccc2oc(N3CCOCC3)nc2c1 [Example 357, 2-morpholino-5-nitrobenzo[d]oxazole]	< 200	–
Cc1ccc(-c2nc3cc(NC(=O)c4ccc(Cl)cc4)ccc3o2)cc1 [Example 19, 4-chloro-N-(2-p-tolylbenzo[d]oxazol-5-yl)benzamide]	< 200	–
CCS(=O)(=O)c1ccc2oc(S)nc2c1 [Example 574]	–	Activity [2]: + (Up to 200% relative to control)
CC(=O)c1ccc2oc(-c3ccc(Cl)cc3)nc2c1 [Example 420, 1-(2-(4-chlorophenyl)benzo[d]oxazol-5-yl)ethanone]	> 401	–
Nc1ccc2oc(CCc3ccccc3)nc2c1 [Example 280, 2-phenethylbenzo[d]oxazol-5-amine]	> 401	–
